The source of these data is US7772235B2, “mGluR5 modulators” (Astrazeneca AB, priority 2006, dated 2010).

Structures are written as SMILES. “And” between values parts separate entries of the source, which are not always exact repeats. Equal entries are not always repeated. Some results are limits rather than exact numbers.

One data set deals with T1, human mGluR5d (Homo sapiens, UniProt P41594).
T1 construct: expressed in transfected cells
Description: FLIPR assay of mGluR5 antagonism (intracellular calcium mobilization). Particulars: cells expressing human mGluR5d. The format is cell-based. From the text: The properties of the compounds of the invention can be analyzed using standard assays for pharmacological activity. Examples of glutamate receptor assays are well known in the art as described in for example Aramori et al., Neuron 8:757 (1992), Tanabe et al., Neuron 8:169 (1992), Miller et al., J. Neuroscience 15: 6103 (1995), Balazs, et al., J. Neurochemistry 69:151 (1997). The methodology described in these publications is incorporated herein by reference. Conveniently, the compounds of the invention can be studied by means of an assay (FLIPR) that measures the mobilization of intracellular calcium, [Ca^2+]i in cells expressing mGluR5 or another assay (IP3) that measures inositol phosphate turnover.
Cells expressing human mGluR5d as described in WO97/05252 are seeded at a density of 100,000 cells per well on collagen coated clear bottom 96-well plates with black sides and experiments are done 24 h following seeding. All assays are done in a buffer containing 127 mM NaCl, 5 mM KCl, 2 mM MgCl2, 0.7 mM NaH2PO4, 2 mM CaCl2, 0.422 mg/mL NaHCO3, 2.4 mg/mL HEPES, 1.8 mg/mL glucose and 1 mg/mL BSA Fraction IV (pH 7.4). Cell cultures in the 96-well plates are loaded for 60 minutes in the above mentioned buffer containing 4 μM of the acetoxymethyl ester form of the fluorescent calcium indicator fluo-3 (Molecular Probes, Eugene, Oreg.) in 0.01% pluronic acid (a proprietary, non-ionic surfactant polyol—CAS Number 9003-11-6). Following the loading period the fluo-3 buffer is removed and replaced with fresh assay buffer. FLIPR experiments are done using a laser setting of 0.800 W and a 0.4 second CCD camera shutter speed with excitation and emission wavelengths of 488 nm and 562 nm, respectively. Each experiment is initiated with 160 μl of buffer present in each well of the cell plate. A 40 μl addition from the antagonist plate was followed by a 50 μL addition from the agonist plate. A 30 minute interval separates the antagonist and agonist additions. The fluorescence signal is sampled 50 times at 1 second intervals followed by 3 samples at 5 second intervals immediately after each of the two additions. Responses are measured as the difference between the peak height of the response to agonist, less the background fluorescence within the sample period. IC50 determinations are made using a linear least squares fitting program.
Background: A change in cytosolic calcium serves as a functional read-out for many receptors and channels.

Data set [1] is described as follows: Determination of brain to plasma ratio (B/P ratio) in rat. It counts as in vivo, female Sprague Dawley rats. Conditions: female, Sprague-Dawley, read-out: B/P Ratio (drug in brain over drug in plasma). How it is done:
Brain to plasma ratios are estimated in female Sprague Dawley rats. The compound is dissolved in water or another appropriate vehicle. For determination of brain to plasma ratio the compound is administrated as a subcutaneous, or an intravenous bolus injection, or an intravenous infusion, or an oral administration. At a predetermined time point after the administration a blood sample is taken with cardiac puncture. The rat is terminated by cutting the heart open, and the brain is immediately retained. The blood samples are collected in heparinized tubes and centrifuged within 30 minutes, in order to separate the plasma from the blood cells. The plasma is transferred to 96-well plates and stored at −20° C. until analysis. The brains are divided in half, and each half is placed in a pre-tarred tube and stored at −20° C. until analysis. Prior to the analysis, the brain samples are thawed and 3 mL/g brain tissue of distilled water is added to the tubes. The brain samples are sonicated in an ice bath until the samples are homogenized. Both brain and plasma samples are precipitated with acetonitrile. After centrifugation, the supernatant is diluted with 0.2% formic acid. […] After reconstitution of the residuals the samples are ready for injection onto the HPLC column.

T1 sequence (P41594 21-942 isoform P41594-3 limits assumed): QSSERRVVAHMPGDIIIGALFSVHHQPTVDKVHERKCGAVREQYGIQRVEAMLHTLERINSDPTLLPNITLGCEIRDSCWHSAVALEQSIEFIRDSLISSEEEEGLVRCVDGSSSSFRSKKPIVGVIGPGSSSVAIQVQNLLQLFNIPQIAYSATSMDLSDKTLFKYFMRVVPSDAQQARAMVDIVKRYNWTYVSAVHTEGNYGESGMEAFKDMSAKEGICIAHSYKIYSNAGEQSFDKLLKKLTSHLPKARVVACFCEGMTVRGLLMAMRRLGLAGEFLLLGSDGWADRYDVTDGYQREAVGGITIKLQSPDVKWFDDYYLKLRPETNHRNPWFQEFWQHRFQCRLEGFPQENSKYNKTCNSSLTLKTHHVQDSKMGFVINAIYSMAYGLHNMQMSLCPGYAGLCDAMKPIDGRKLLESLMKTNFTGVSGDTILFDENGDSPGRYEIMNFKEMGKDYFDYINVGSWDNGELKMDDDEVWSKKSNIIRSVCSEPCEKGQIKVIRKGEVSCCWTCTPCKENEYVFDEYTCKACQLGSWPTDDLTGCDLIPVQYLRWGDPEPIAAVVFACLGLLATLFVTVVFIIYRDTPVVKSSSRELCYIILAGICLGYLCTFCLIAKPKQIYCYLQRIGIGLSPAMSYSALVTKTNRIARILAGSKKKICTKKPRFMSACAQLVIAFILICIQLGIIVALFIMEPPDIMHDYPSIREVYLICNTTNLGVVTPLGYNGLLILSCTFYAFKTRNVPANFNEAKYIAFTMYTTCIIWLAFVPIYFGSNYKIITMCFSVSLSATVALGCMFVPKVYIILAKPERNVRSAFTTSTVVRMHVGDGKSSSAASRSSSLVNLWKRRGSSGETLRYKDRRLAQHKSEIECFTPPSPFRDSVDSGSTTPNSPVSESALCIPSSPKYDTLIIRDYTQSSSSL

By IC50 is commonly meant the midpoint of a concentration-inhibition curve. Take `C[C@@H](Oc1nnc(-c2ccn(C)c(=O)c2)n1C)c1cc(-c2cccc(Cl)c2)on1` [Example 36.1, 4-(5-{(1R)-1-[5-(3-Chlorophenyl)isoxazol-3-yl]ethoxy}-4-methyl-4H-1,2,4-triazol-3-yl)-1-methylpyridin-2(1H)-one]: the IC50 on human mGluR5d amounted to 19 nM.
On the same count and under the same terms, with `C[C@@H](Oc1nnc(-c2ccn(C)c(=O)c2)n1C)c1noc(-c2cccc(Cl)c2)n1` [Example 36.2, 4-(5-{(1R)-1-[5-(3-Chlorophenyl)-1,2,4-oxadiazol-3-yl]ethoxy}-4-methyl-4H-1,2,4-triazol-3-yl)-1-methylpyridin-2(1H)-one] the figure was 20 nM; with `Cn1c(OCc2cc(-c3cccc(Cl)c3)on2)nnc1-c1cc[nH]c(=O)c1` [Example 37.2, 4-(5-{[5-(3-chlorophenyl)isoxazol-3-yl]methoxy}-4-methyl-4H-1,2,4-triazol-3-yl)pyridin-2(1H)-one], > 3000 nM and 1580 nM.
Regarding `C[C@@H](Oc1nnc(-c2cc[nH]c(=O)c2)n1C)c1cc(-c2cccc(Cl)c2)on1` [Example 37.3, 4-(5-{(1R)-1-[5-(3-Chlorophenyl)isoxazol-3-yl]ethoxy}-4-methyl-4H-1,2,4-triazol-3-yl)pyridin-2(1H)-one], at human mGluR5d, the half-maximal inhibitory concentration (IC50) stood at 10 nM. Besides, the Kp in data set [1] worked out at 0.02.
As for `C[C@@H](Oc1nnc(-c2cc[nH]c(=O)c2)n1C)c1noc(-c2cccc(Cl)c2)n1` [Example 38.1, 4-(5-{(R)-1-[5-(3-Chloro-phenyl)-[1,2,4]oxadiazol-3-yl]-ethoxy}-4-methyl-4H-[1,2,4]triazol-3-yl)-1H-pyridin-2-one], at human mGluR5d, the IC50 came to 13 nM.
On the same count and under the same terms, the same measure for `C[C@@H](Oc1nnc(-c2cc[nH]c(=O)c2)n1C)c1nnn(-c2cccc(Cl)c2)n1` [Example 38.2, 4-(5-{(1R)-1-[2-(3-Chlorophenyl)-2H-tetrazol-5-yl]ethoxy}-4-methyl-4H-1,2,4-triazol-3-yl)pyridin-2(1H)-one]: 9 nM.
On the same count and under the same terms, the same measure for `C[C@@H](Oc1nnc(-c2cn[nH]c(=O)c2)n1C)c1nnn(-c2cccc(Cl)c2)n1` [Example 38.3, 5-(5-{(1R)-1-[2-(3-Chlorophenyl)-2H-tetrazol-5-yl]ethoxy}-4-methyl-4H-1,2,4-triazol-3-yl)pyridazin-3(2H)-one]: 6 nM.
Regarding `C[C@@H](Oc1nnc(-c2cn[nH]c(=O)c2)n1C)c1noc(-c2cccc(Cl)c2)n1` [Example 38.4, 5-(5-{(1R)-1-[5-(3-Chlorophenyl)-1,2,4-oxadiazol-3-yl]ethoxy}-4-methyl-4H-1,2,4-triazol-3-yl)pyridazin-3(2H)-one], the IC50 on human mGluR5d was found to be 15 nM.
The same measure, in the same setting: the same measure for `C[C@@H](Oc1nnc(-c2cn[nH]c(=O)c2)n1C)c1cc(-c2cccc(Cl)c2)on1` [Example 38.5, 5-(5-{(1R)-1-[5-(3-Chlorophenyl)isoxazol-3-yl]ethoxy}-4-methyl-4H-1,2,4-triazol-3-yl)pyridazin-3(2H)-one]: 8 nM; for `Cc1cccc(-n2nnc([C@@H](C)Oc3nnc(-c4cn[nH]c(=O)c4)n3C)n2)c1` [Example 38.6, 5-(4-Methyl-5-{(1R)-1-[2-(3-methylphenyl)-2H-tetrazol-5-yl]ethoxy}-4H-1,2,4-triazol-3-yl)pyridazin-3(2H)-one]: 7 nM; for `Cc1cccc(-c2cc([C@@H](C)Oc3nnc(-c4cn[nH]c(=O)c4)n3C)no2)c1` [Example 38.7, 5-(4-Methyl-5-{(1R)-1-[5-(3-methylphenyl)isoxazol-3-yl]ethoxy}-4H-1,2,4-triazol-3-yl)pyridazin-3(2H)-one]: 12 nM.
Consider `C[C@@H](Oc1nnc(-c2ccncc2)n1C)c1cc(-c2cccc(Cl)c2)on1` [reference compound], for which the Kp in data set [1] turned out to be 0.8.
